Earlier results, collected in patent publication US20210298296A1, “METHOD OF PREVENTING MICROBES IN DISPOSABLE PRODUCTS” (priority 2020, published 2021).

Key:
[1] = tested on: S. aureus, Staphylococcus epidermidis, Propionibacterium acnes
[2] = tested on: acne vulgaris (P. acnes)
[3] = tested on: tinea pedis
[4] = tested on: Staphylococcus aureus; conditions: in vitro
[5] = tested on: influenza virus subtype H1N1
[6] = tested on: human melanoma cells
[7] = tested on: cells activated by monocytes; conditions: water-soluble components of Tea Tree Oil
[8] = tested on: Leishmania major
[9] = tested on: Trypanosoma brucei
[10] = tested on: nail fungus (onychomycosis); conditions: 117 patients; six months, twice-daily topical 1% clotrimazole or 100% Tea Tree Oil
[11] = 104 patients, 10% w/w Tea Tree Oil cream vs 1% tolnaftate vs placebo

## CC1=CCC2CC1C2(C)C (stereo not drawn) [alpha-pinene]
[1]
  inhibitory effect on all three organisms: inhibitory

## O=C(OOC(=O)c1ccccc1)c1ccccc1 [benzoyl peroxide, reference compound]
[2]; 124 patients, 5% Tea Tree Oil gel vs 5% benzoyl peroxide lotion
  number of inflamed and non-inflamed lesions: significantly reduced the number of inflamed and non-inflamed lesions

## Cc1cccc(N(C)C(=S)Oc2ccc3ccccc3c2)c1 [tolnaftate]
[3]; [11]
  conversion to negative culture at the end of therapy: showed conversion to negative culture
  improvements in clinical symptoms: significant improvements in clinical symptoms
[3]; human, in vivo
  cure rate for tinea pedis: 80%

## CC1=CCC(C(C)(C)O)CC1 (stereo not drawn) [alpha-terpineol]
[1]
  inhibitory effect on all three organisms: inhibitory

## CC1=CCC(O)(C(C)C)CC1 (stereo not shown) [Terpinen-4-ol, 4-methyl-1-(1-methylethyl)-3-cyclohexen-1-ol]
[4]
  activity against Staphylococcus aureus, Terpinen-4-ol compared with whole Tea Tree Oil: equally effective
[5]
  antiviral activity against influenza virus subtype H1N1: principally attributed to Terpinen-4-ol
[6]
  growth of human melanoma cells: impair the growth of human melanoma cells
[7]
  inflammatory response: suppress the inflammatory response
[1]
  inhibitory effect on all three organisms: inhibitory
[8]
  contribution to the antiprotozoal activity of Tea Tree Oil: contributed significantly to this activity
[9]
  contribution to the antiprotozoal activity of Tea Tree Oil: contributed significantly to this activity

## Tea Tree Oil
[2]; human, in vivo
  adverse side effects (skin scaling, dryness, irritation): fewer adverse side effects

## Clc1ccccc1C(c1ccccc1)(c1ccccc1)n1ccnc1 [clotrimazole]
[10]
  clinical resolution of the infection: clinically documented resolution of the infection
  fungus in cultures: decrease in fungus in cultures
